# Test results published in article PMC8587015, “AGSE: A Novel Grape Seed Extract Enriched for PP2A Activating Flavonoids That Combats Oxidative Stress and Promotes Skin Health” (Molecules, 2021).
# “And” between values parts separate entries of the source, which are not always exact repeats. Identical values can stand only once. Like-named read-outs stand apart in the source and are kept apart here.
# Molecular target: T1, PME-1 (Protein phosphatase methylesterase 1) (Homo sapiens, UniProt Q9Y570)
# T1 sequence (Q9Y570 1-386): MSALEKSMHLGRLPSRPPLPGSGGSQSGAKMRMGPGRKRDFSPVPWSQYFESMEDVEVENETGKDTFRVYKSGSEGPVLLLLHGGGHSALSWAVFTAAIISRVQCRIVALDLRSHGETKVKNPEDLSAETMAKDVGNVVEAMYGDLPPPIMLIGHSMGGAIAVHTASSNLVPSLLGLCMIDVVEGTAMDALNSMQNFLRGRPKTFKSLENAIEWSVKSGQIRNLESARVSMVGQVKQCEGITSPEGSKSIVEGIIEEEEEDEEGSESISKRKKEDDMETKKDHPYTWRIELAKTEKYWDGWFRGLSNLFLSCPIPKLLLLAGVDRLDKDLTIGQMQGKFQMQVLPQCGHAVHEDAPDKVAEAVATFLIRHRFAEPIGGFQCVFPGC
# Assay: Demethylation of PP2A by PME-1, radioactive filter binding assay
# Format: biochemical
# Settings: for IC50: GSE flavonoids / grape seed components
# Method: [^3H]-labeled methylated PP2A AC dimer was prepared by incubating PP2A, LCMT1 and [^3H]-SAM (PerkinElmer; Waltham, MA, USA) in 50 mM MOPS-Na (pH 7.2), 5 mM MgCl2, and 1 mM DTT at room temperature for 1 h. Demethylation of PP2A by PME-1 (Protein phosphatase methylesterase 1) was measured using the radioactive filter binding assay format. 20 nM PME-1 was incubated for 15 min with extract or compound, then 20 nM of [^3H]-labeled methylated PP2A AC dimer was added. Reactions were run at room temperature for 30 min then applied to a 96-well filter plate (MilliporeSigma; Burlington, MA, USA.) containing 30% TCA where proteins were precipitated and separated from the excess of [^3H]-SAM by washing with 70% ethanol. [^3H]-incorporation was measured using TopCount NXT scintillation counter (PerkinElmer; Waltham, MA, USA). IC50 values were generated from dose–response curves using a four-parameter logistic curve fit in SigmaPlot (Systat Software, Inc., Palo Alto, CA, USA).
# [1] = read-out: IC50, PP2A demethylation activity assay
SMILES,IC50 [1],further results
C[C@@H]1O[C@@H](OC[C@H]2O[C@@H](Oc3c(-c4ccc(O)c(O)c4)oc4cc(O)cc(O)c4c3=O)[C@H](O)[C@@H](O)[C@@H]2O)[C@H](O)[C@H](O)[C@H]1O [Rutin],> 15 µM,–
O=c1c(O)c(-c2ccc(O)c(O)c2)oc2cc(O)cc(O)c12 [Quercetin],2.5 µM,–
O=c1c(-c2ccc(O)cc2)coc2cc(O)ccc12 [Diadzein],> 15 µM,–
O=C(O[C@@H]1Cc2c(O)cc(O)cc2O[C@@H]1c1cc(O)c(O)c(O)c1)c1cc(O)c(O)c(O)c1 [Epigallocatechin gallate],2.6 µM,–
Oc1cc(O)c2cc(O)c(-c3ccc(O)c(O)c3)[o+]c2c1 [Cyanidin chloride],4.3 µM,–
C[C@@H]1O[C@@H](O[C@H]2[C@H](Oc3cc(O)c4c(c3)O[C@H](c3ccc(O)cc3)CC4=O)O[C@H](CO)[C@@H](O)[C@@H]2O)[C@H](O)[C@H](O)[C@H]1O [Naringin],> 25 µM,–
Oc1cc(O)c2c(c1)O[C@H](c1cc(O)c(O)c(O)c1)[C@H](O)C2 [Epigallocatechin],> 15 µM,–
Oc1cc(O)c2c(c1)O[C@H](c1ccc(O)c(O)c1)[C@H](O)[C@H]2c1c(O)cc(O)c2c1O[C@H](c1ccc(O)c(O)c1)[C@@H](O)C2 [Procyanidin B1],> 35 µM,–
O=c1c(O)c(-c2ccc(O)c(O)c2)oc2c(O)c(O)cc(O)c12 [Gossypetin],4.9 µM,–
Oc1cc(O)c2c(c1)O[C@H](c1ccc(O)c(O)c1)[C@@H](O)[C@@H]2c1c(O)cc(O)c2c1O[C@H](c1ccc(O)c(O)c1)[C@@H](O)C2 [Procyanidin B3],> 35 µM,–
COc1ccc(-c2cc(=O)c3c(O)cc(O)c(-c4cc(-c5cc(=O)c6c(O)cc(OC)cc6o5)ccc4OC)c3o2)cc1 [Sciadopitysin],1.1 µM,–
C=CCc1ccc(O)c(OC)c1 [Eugenol],> 15 µM,–
CC(C)(C)C(O)(CCc1ccc(Cl)cc1)Cn1cncn1 (stereo not drawn) [Tebuconazole],> 15 µM,–
"COc1cc(OC)c2c(c1)OC(c1ccc(O)cc1)CC2=O (stereo not drawn) [5,7-dimethoxy-4′hydroxyflavanone]",> 25 µM,–
CC(C)NC(=O)N1CC(=O)N(c2cc(Cl)cc(Cl)c2)C1=O [Iprodione],> 15 µM,–
CO/C=C(/C(=O)OC)c1ccccc1Oc1cc(Oc2ccccc2C#N)ncn1 [Azoxystrobin],> 15 µM,–
O=C(O)[C@H]1O[C@@H](Oc2cc3oc(-c4ccc(O)cc4)cc(=O)c3c(O)c2O)[C@H](O)[C@@H](O)[C@@H]1O [Scutellarin],4.9 µM,–

SMILES,IC50 [1],further results
O=C(O[C@@H]1Cc2c(O)cc(O)cc2O[C@@H]1c1ccc(O)c(O)c1)c1cc(O)c(O)c(O)c1 [Epicatechin gallate],1.4 µM,–
O=c1c(O)c(-c2ccc(O)c(O)c2)oc2cc(O)c(O)c(O)c12 [Quercetagetin],0.5 µM and ~0.5 µM,–
O=c1cc(-c2ccc(O)c(O)c2)oc2c([C@@H]3O[C@H](CO)[C@@H](O)[C@H](O)[C@H]3O)c(O)cc(O)c12 [Orientin],> 25 µM,–
O=C(O)c1cc(O)c(O)c(O)c1 [Gallic acid],> 15 µM,–
O=c1c(-c2ccc(O)cc2)coc2cc(O[C@@H]3O[C@H](CO)[C@@H](O)[C@H](O)[C@H]3O)ccc12 [Diadzin],> 15 µM,–
COP(=S)(OC)SCN1C(=O)c2ccccc2C1=O [Phosmet],–,"IC50 (IC50, PP2A demethylation activity assay): > 15 µM"
Oc1cccc(O)c1O [Pyrogallol],~15 µM,–
Cc1ccc(O)c(O)c1 [4-methylcatechol],> 15 µM,–
CC(C)(O)[C@@H]1[C@H]2OC(=O)[C@@H]1[C@]1(O)C[C@H]3O[C@]34C(=O)O[C@H]2[C@]14C [Picrotin],> 25 µM,–
O=c1c(O)c(-c2cc(O)c(O)c(O)c2)oc2cc(O)cc(O)c12 [Myricetin],0.99 µM,–
COc1cc(C(=O)O)ccc1O [Vanillic acid],> 15 µM,–
O=c1cc(-c2ccc(O)cc2)oc2cc(O)cc(O)c12 [Apigenin],> 15 µM,–
O=c1cc(-c2ccc(O)c(O)c2)oc2cc(O[C@@H]3O[C@H](CO)[C@@H](O)[C@H](O)[C@H]3O)cc(O)c12 [Luteolin 7-O-B-glucoside],> 25 µM,–
Oc1cc(O)c2c(c1)O[C@H](c1ccc(O)c(O)c1)[C@H](O)[C@H]2c1c(O)cc(O)c2c1O[C@H](c1ccc(O)c(O)c1)[C@H](O)C2 [Procyanidin B2],> 35 µM,–
Oc1cc(O)c2cc(O)c(-c3cc(O)c(O)c(O)c3)[o+]c2c1 [Delphinidin],5.1 µM,–
CCCCC(C#N)(Cn1cncn1)c1ccc(Cl)cc1 (stereo not drawn) [Myclobutanil],> 15 µM,–
"COc1cc(-c2oc3cc(O)cc(O)c3c(=O)c2O)ccc1O [3,5,7,4′-Tetrahydroxy-3′-methoxyflavone]",> 15 µM,–

# Continued, in another order:
IC50 [1],SMILES,further results
> 25 µM,C=C[C@@]1(C)CC(=O)[C@]2(O)[C@@]3(C)[C@@H](O)CCC(C)(C)[C@@H]3[C@H](O)[C@H](OC(C)=O)[C@@]2(C)O1 [Forskolin],–
2 µM,COc1ccc(-c2oc3cc(O)cc(O)c3c(=O)c2O)cc1 [Kaempferide],–
1.7 µM,COc1c(O)cc2oc3cc(O)c(CC=C(C)C)c(O)c3c(=O)c2c1CC=C(C)C [Mangostine],–
> 15 µM,"CC(=O)Oc1cc(O)c2c(c1)OC(c1ccc(OC(C)=O)c(OC(C)=O)c1)C(OC(C)=O)C2=O (stereo not drawn) [2-(acetyloxy)-4-[3,7-bis(acetyloxy)-5-hydroxy-4-oxo-3,4-dihydro-2H-chromen-2-yl]phenyl acetate]",–
> 25 µM,"COC(=O)Cc1cc(=O)oc2cc(OC)c(OC)cc12 [Methyl 6,7-dimethoxycoumarin-4-acetate]",–
> 15 µM,Oc1cc(O)cc(O)c1 [Phloroglucinol],–
3.4 µM,O=c1cc(-c2ccccc2)oc2cc(O)c(O)c(O)c12 [Baicalein],–
1.7 µM,O=c1cc(-c2ccc(O)c(O)c2)oc2cc(O)cc(O)c12 [Luteolin],–
> 15 µM,O=c1c(O[C@@H]2O[C@H](CO)[C@@H](O)[C@H](O)[C@H]2O)c(-c2ccc(O)c(O)c2)oc2cc(O)cc(O)c12 [Isoquercetin],–
> 25 µM,O=c1cc(-c2ccc(O)c(O)c2)oc2cc(O)c([C@@H]3O[C@H](CO)[C@@H](O)[C@H](O)[C@H]3O)c(O)c12 [Isoorientin],–
> 15 µM,O=C(O)/C=C/c1ccc(O)c(O)c1 [Caffeic Acid],–
~15 µM,COc1ccc(-c2coc3cc(O)cc(O)c3c2=O)cc1 [Biochanin a],–
> 15 µM,COc1cc(C(=O)O)cc(OC)c1O [Syringic acid],–
> 25 µM,"COc1cc(O)c(C(=O)/C=C/c2ccc(O)cc2)c(OC)c1 [2′,4-dihydroxy-4′,6′-dimethoxychalcone]",–
> 25 µM,O=C1C[C@@H](c2ccc(O)c(O)c2)Oc2cc(O)cc(O)c21 [Eriodictyol],–
> 15 µM,Oc1cc(O)c2c(c1)O[C@H](c1ccc(O)c(O)c1)[C@@H](O)C2 [Catechin],–
~25 µM,COc1ccc(-c2cc(=O)c3c(O)cc(O[C@@H]4O[C@H](CO[C@@H]5O[C@@H](C)[C@H](O)[C@@H](O)[C@H]5O)[C@@H](O)[C@H](O)[C@H]4O)cc3o2)cc1O [Diosmin],–
> 25 µM,C[C@@H]1O[C@@H](OC[C@H]2O[C@@H](Oc3cc(O)c4c(c3)O[C@H](c3ccc(O)cc3)CC4=O)[C@H](O)[C@@H](O)[C@@H]2O)[C@H](O)[C@H](O)[C@H]1O [Narirutin],–
> 15 µM,O=c1c(O)c(-c2ccc(O)cc2O)oc2cc(O)cc(O)c12 [Morin],–
> 15 µM,COc1ccc(-c2coc3cc(O)ccc3c2=O)cc1 [Formonoetin],–
> 100 µM,Oc1ccc(/C=C/c2cc(O)cc(O)c2)cc1 [Resveratrol],activity in preventing PP2A demethylation (in words): does not function through this PP2A mechanism
> 15 µM,"COc1cc(-c2oc3cc(O)cc(O)c3c(=O)c2O)cc(OC)c1OC [3,5,7-Trihydroxy-3′,4′,5′-Trimethoxyflavone]",–
